Results published in article PMC8936499, “Cytochrome P450 168A1 from Pseudomonas aeruginosa is involved in the hydroxylation of biologically relevant fatty acids” (PLoS ONE, 2022).
Read-outs that look alike come from different tables or passages of the source. Marks after values point to notes of the source that are not given here.

What was measured:
CYP168A1 [1] = conditions: cited from earlier work
CYP168A1 [2] = conditions: cited from earlier work; remark: listed apart in the source
CYP168A1 [3] = target: T1, CYP168A1 (Pseudomonas aeruginosa, UniProt Q9I107); experiment: Fatty acid binding studies (spectral titration, type I difference spectra); conditions: for Low- to high-spin state change (%): from ΔAmax; for Kd: read-out: Ks, mean of four replicates ± SD
Method: The absorbance difference spectra from 500 nm to 350 nm were determined after each incremental addition of fatty acid. Ligand saturation curves were constructed from the change in absorbance (ΔApeak-trough) against fatty acid concentration. The dissociation constant for the fatty acid-CYP168A1 complex (Ks) was determined by nonlinear regression (Levenberg-Marquardt algorithm) using a rearrangement of the Morrison equation [14] and the Michaelis-Menten equation. […]. All fatty acid binding experiments were undertaken in quadruplicate.
In between ligand binding determinations, the quartz cuvettes were washed with deionized water and then soaked for 30 min in 2-propanol at room temperature to desorb any residual fatty acids from the cuvette surfaces, followed by rinsing a further three-times with 2-propanol and then deionized water prior to drying.

CYP168A1 [4] = target: T1, CYP168A1; assay type: biochemical; conditions: 0.5% DMF in the CYP168A1 assay system
Method: Assay mixtures were incubated at 37°C for 5 min prior to initiation with 4 mM β-NADPH-Na4 and then incubated for a further 2.5 hours at the same temperature. Fatty acids and their hydroxylated products were recovered by extraction with dichloromethane and dried in a vacuum centrifuge. TMS derivatisation of the samples and analysis by GCMS were performed as previously described. Percentage product formation was calculated from the GC peak areas of the fatty acid and the hydroxylated metabolites, with compound identities confirmed by mass fragmentation patterns of fatty acid standards.
Control assays contained no azole, but an equivalent volume of DMF. Experiments were undertaken in duplicate.

CYP168A1 [5] = target: T1, CYP168A1; conditions: for Turnover no., ω-1- carbon hydroxylated / % Product, ω-1- carbon hydroxylated / Turnover no., ω-2- carbon hydroxylated / % Product, ω-2- carbon hydroxylated: 100 μM substrate, mean of two replicates ± standard error; for Turnover no., ω-1- carbon hydroxylated / Turnover no., ω-2- carbon hydroxylated: 0.25 μM CYP168A1, 37°C; for % Product, ω-1- carbon hydroxylated / % Product, ω-2- carbon hydroxylated: 0.25 μM CYP168A1, 2.5 h at 37°C; for hydroxylation rate at both the ω-1- and ω-2-positions (total): sum of ω-1 and ω-2 turnover
CYP168A1 [6] = conditions: comparison with ref 40
CYP168A1 [7] = target: T1, CYP168A1; conditions: 50 μM substrate, 2 μM CYP168A1, 3 hours at 37°C
CYP168A1 [8] = tested on: CYP168A1; design: method as in PMID 35085556; conditions: arachidonic acid as substrate, CYP168A1:ketoconazole ratio 5μM:10μM; cited from earlier work
[9] = tested on: Streptomyces peucetius CYP147F1; design: method as in PMID 24055535; conditions: cited from earlier work
Candida albicans CYP51 = tested on: Candida albicans CYP51; design: method as in PMID 23274672, PMID 20625155; conditions: cited from earlier work
CYP168A1 [10] = target: T1, CYP168A1; experiment: Azole binding studies (spectral titration, type II difference spectra); conditions: read-out: apparent dissociation constant (Kd) of azole-CYP168A1 complex; 2 μM CYP168A1, rearranged Morrison equation, duplicate
[11] = 5 μM CYP168A1, cuvette path length 10 mm
[12] = 5 μM CYP168A1, path length 10 mm
[13] = 5 μM CYP168A1, 0.1 M Tris-HCl pH 8.1, room temperature, rearranged Morrison equation

T1 sequence (Q9I107 entry or part of it): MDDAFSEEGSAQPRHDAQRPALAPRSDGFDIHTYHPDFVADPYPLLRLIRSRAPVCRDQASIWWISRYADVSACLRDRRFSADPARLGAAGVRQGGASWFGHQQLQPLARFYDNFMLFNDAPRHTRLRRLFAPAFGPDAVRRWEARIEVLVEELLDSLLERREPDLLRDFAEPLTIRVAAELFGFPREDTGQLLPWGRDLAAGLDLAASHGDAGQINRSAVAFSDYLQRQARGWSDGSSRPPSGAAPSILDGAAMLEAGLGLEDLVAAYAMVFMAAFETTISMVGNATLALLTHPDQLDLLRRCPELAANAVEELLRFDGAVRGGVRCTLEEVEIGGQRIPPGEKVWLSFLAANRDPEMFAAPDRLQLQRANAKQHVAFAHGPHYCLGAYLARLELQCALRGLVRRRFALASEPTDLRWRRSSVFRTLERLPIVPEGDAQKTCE

## CCCCC/C=C\C/C=C\C/C=C\C/C=C\CCCC(=O)O [Arachidonic acid, arachidonic acid]
CYP168A1 [1]
  Kd: 960 nM
CYP168A1 [2]
  CYP168A1 turnover number: 0.222 min⁻¹
CYP168A1 [3]
  Ks value, fold larger than stearic acid: 9000 fold
  fold-difference in apparent Ks values compared to stearic and linoleic acids: ~9160 fold
CYP168A1 [3]; 5 μM CYP168A1, cuvette path length 4.5 mm
  ΔAmax: 0.071 ±0.009 ^b
CYP168A1 [3]; compared with ref 28
  Ks in this study, fold higher than recently reported: over 400 fold
CYP168A1 [3]; 5 μM CYP168A1, path length 4.5 mm
  Low- to high-spin state change (%): 31.6 ±4.0 ^b %
CYP168A1 [3]; 5 μM CYP168A1, path length 4.5 mm, listed as arachidonic acid
  Low- to high-spin state change (%): 32%
CYP168A1 [3]; 5 μM CYP168A1, Michaelis-Menten equation, saturation not achieved at 660 μM
  Kd: 458000 ± 87000 nM
CYP168A1 [3]; 5 μM CYP168A1, Michaelis-Menten equation, saturation not achieved at 660 μM, listed as arachidonic acid
  Kd: ~460000 nM

## CN(C)C=O [DMF, dimethylformamide]
CYP168A1 [4]
  reduction in oleic acid turnover: 10 fold

## CCCCC/C=C\C/C=C\CCCCCCCC(=O)O [Linoleic acid, linoleic acid]
CYP168A1 [3]; [11]
  ΔAmax: 0.142 ±0.013
CYP168A1 [3]; [12]
  Low- to high-spin state change (%): 28.3 ±2.6%
CYP168A1 [3]; 5 μM CYP168A1, path length 10 mm, listed as linoleic acid
  Low- to high-spin state change (%): 28%
CYP168A1 [3]; [13]
  Kd: < 50 nM
CYP168A1 [5]
  Turnover no., ω-1- carbon hydroxylated: 0.35 ± 0.03 min⁻¹
  % Product, ω-1- carbon hydroxylated: 14 ± 1.3%
CYP168A1 [5]; listed as linoleic acid
  Turnover no., ω-1- carbon hydroxylated: 0.35 min⁻¹

## CCCCCCCCCCCCCC(=O)O [Myristic acid, myristic acid]
CYP168A1 [3]
  fold-difference in apparent Ks values compared to stearic and linoleic acids: ~5 fold
CYP168A1 [3]; [12]
  Low- to high-spin state change (%): 22.8 ±1.6%
CYP168A1 [3]; 5 μM CYP168A1, path length 10 mm, listed as myristic acid
  Low- to high-spin state change (%): 23%
CYP168A1 [3]; [13]
  Kd: 249 ± 103 nM
CYP168A1 [3]; 5 μM CYP168A1, 0.1 M Tris-HCl pH 8.1, room temperature, rearranged Morrison equation, listed as myristic acid
  Kd: 250 nM
CYP168A1 [5]
  catalytic turnover, fold lower than palmitic acid: 5.3 fold
  fold less ω-1-hydroxy product formed than with palmitic acid as substrate: 4.7 fold
  fold less ω-2-hydroxy product formed than with palmitic acid as substrate: 10.3 fold
  Turnover no., ω-1- carbon hydroxylated: 0.27 ± 0.02 min⁻¹
  Turnover no., ω-2- carbon hydroxylated: 0.033 ± 0.001 min⁻¹
  % Product, ω-1- carbon hydroxylated: 11 ± 0.6%
  % Product, ω-2- carbon hydroxylated: 1.3 ± 0.03%
  hydroxylation rate at both the ω-1- and ω-2-positions (total): 0.30 min⁻¹

## CCCCCCCC/C=C\CCCCCCCC(=O)O [Oleic acid, oleic acid]
CYP168A1 [3]; [11]
  ΔAmax: 0.277 ±0.014
CYP168A1 [3]; [12]
  Low- to high-spin state change (%): 55.4 ±2.8%
CYP168A1 [3]; 5 μM CYP168A1, path length 10 mm, listed as oleic acid
  Low- to high-spin state change (%): 55%
CYP168A1 [3]; [13]
  Kd: 142 ± 12 nM
CYP168A1 [3]; 5 μM CYP168A1, 0.1 M Tris-HCl pH 8.1, room temperature, rearranged Morrison equation, listed as oleic acid
  Kd: ~150 nM
CYP168A1 [5]
  % Product, ω-1- carbon hydroxylated: 49 ± 1.2%

## CCCCCCCCCCCCCCCC(=O)O [Palmitic acid, palmitic acid]
CYP168A1 [3]
  fold-difference in apparent Ks values compared to stearic and linoleic acids: ~2 fold
CYP168A1 [3]; [11]
  ΔAmax: 0.290 ±0.015
CYP168A1 [3]; [12]
  Low- to high-spin state change (%): 58.1 ±3.0%
CYP168A1 [3]; 5 μM CYP168A1, path length 10 mm, listed as palmitic acid
  Low- to high-spin state change (%): 58%
CYP168A1 [3]; [13]
  Kd: 117 ± 56 nM
CYP168A1 [3]; 5 μM CYP168A1, 0.1 M Tris-HCl pH 8.1, room temperature, rearranged Morrison equation, listed as palmitic acid
  Kd: 120 nM
CYP168A1 [5]
  Turnover no., ω-1- carbon hydroxylated: 1.27 ± 0.10 min⁻¹
  Turnover no., ω-2- carbon hydroxylated: 0.34 ± 0.10 min⁻¹
  % Product, ω-1- carbon hydroxylated: 49 ± 3.8%
  % Product, ω-2- carbon hydroxylated: 13 ± 4.0%
  hydroxylation rate at both the ω-1- and ω-2-positions (total): 1.61 min⁻¹
CYP168A1 [5]; listed as palmitic acid
  Turnover no., ω-1- carbon hydroxylated: 1.27 min⁻¹
  Turnover no., ω-2- carbon hydroxylated: 0.34 min⁻¹
CYP168A1 [6]
  turnover, fold greater than observed with Mycobacterium tuberculosis CYP124: 23 fold

## CCCCCC/C=C\CCCCCCCC(=O)O [Palmitoleic acid, palmitoleic acid]
CYP168A1 [3]
  fold-difference in apparent Ks values compared to stearic and linoleic acids: ~3 fold
CYP168A1 [3]; [11]
  ΔAmax: 0.185 ±0.006
CYP168A1 [3]; [12]
  Low- to high-spin state change (%): 37.0 ±1.2%
CYP168A1 [3]; 5 μM CYP168A1, path length 10 mm, listed as palmitoleic acid
  Low- to high-spin state change (%): 37%
CYP168A1 [3]; [13]
  Kd: 155 ± 83 nM
CYP168A1 [3]; 5 μM CYP168A1, 0.1 M Tris-HCl pH 8.1, room temperature, rearranged Morrison equation, listed as palmitoleic acid
  Kd: ~150 nM
CYP168A1 [5]
  Turnover no., ω-1- carbon hydroxylated: 0.38 ± 0.06 min⁻¹
  % Product, ω-1- carbon hydroxylated: 15 ± 2.4%
CYP168A1 [5]; listed as palmitoleic acid
  Turnover no., ω-1- carbon hydroxylated: 0.38 min⁻¹

## CCCCCCCCCCCCCCCCCC(=O)O [Stearic acid, stearic acid]
CYP168A1 [1]; read-out: Ks reported for P. aeruginosa CYP168A1
  Kd: 327 nM
CYP168A1 [3]; [11]
  ΔAmax: 0.328 ±0.020
CYP168A1 [3]; compared with ref 28
  Ks in this study, fold lower than recently reported: over 6 fold
CYP168A1 [3]; [12]
  Low- to high-spin state change (%): 65.6 ±4.1%
CYP168A1 [3]; 5 μM CYP168A1, path length 10 mm, listed as stearic acid
  Low- to high-spin state change (%): 66%
CYP168A1 [3]; [13]
  Kd: < 50 nM
CYP168A1 [5]
  catalytic turnover, fold greater than that for linoleic acid: 3.5 fold
  fold less ω-1-hydroxy product formed than with palmitic acid as substrate: 1.2 fold
  fold less ω-2-hydroxy product formed than with palmitic acid as substrate: 2 fold
  Turnover no., ω-1- carbon hydroxylated: 1.07 ± 0.09 min⁻¹
  Turnover no., ω-2- carbon hydroxylated: 0.17 ± 0.01 min⁻¹
  % Product, ω-1- carbon hydroxylated: 41 ± 2.9%
  % Product, ω-2- carbon hydroxylated: 6.6 ± 0.5%
  hydroxylation rate at both the ω-1- and ω-2-positions (total): 1.24 min⁻¹

## CC(C)CCC[C@@H](C)[C@H]1CC[C@H]2[C@@H]3CCC4=CC(=O)CC[C@]4(C)[C@H]3CC[C@]12C [cholesta-4-ene-3-one]
CYP168A1 [7]
  oxygenated products formed: no oxygenated products

## CC(C)CCC[C@@H](C)[C@H]1CC[C@H]2[C@@H]3CC=C4C[C@@H](O)CC[C@]4(C)[C@H]3CC[C@]12C [cholesterol]
CYP168A1 [7]
  oxygenated products formed: no oxygenated products

## CC(=O)N1CCN(c2ccc(OCC3COC(Cn4ccnc4)(c4ccc(Cl)cc4Cl)O3)cc2)CC1 (stereo not drawn) [ketoconazole]
CYP168A1 [8]
  reduction in enzyme activity: ~70%

## CCCCCCCCCCCC(=O)O [lauric acid]
CYP168A1 [2]
  CYP168A1 Km, fold higher than the Ks value: 25 fold
  CYP168A1 turnover number: 0.138 min⁻¹
[9]
  enzyme molecules undergoing low- to high-spin state transition: 95%

## Clc1ccc(COC(Cn2ccnc2)c2ccc(Cl)cc2Cl)c(Cl)c1 (stereo not drawn) [miconazole]
Candida albicans CYP51
  Kd: 26 nM
CYP168A1 [10]
  Kd: 190 ± 60 nM

## CC(C)(C)C(O)(CCc1ccc(Cl)cc1)Cn1cncn1 (stereo not drawn) [tebuconazole]
Candida albicans CYP51
  Kd: 36 nM
CYP168A1 [10]
  Kd: 180 ± 10 nM

## C[C@]12CC[C@H]3[C@@H](CCC4=CC(=O)CC[C@@]43C)[C@@H]1CC[C@@H]2O [testosterone]
CYP168A1 [7]
  oxygenated products formed: no oxygenated products

## C[C@@H](c1ncncc1F)[C@](O)(Cn1cncn1)c1ccc(F)cc1F [voriconazole]
Candida albicans CYP51
  Kd: 10 nM
CYP168A1 [10]
  Kd: 2050 ± 540 nM
